Reference: US6858707B1, “Hypersensitive response elicitor fragments which are active but do not elicit a hypersensitive response” (EDEN Bioscience Corporation, priority 1998, dated 2005)
Values joined by “and” are separate entries in the source; they are usually repeats but may differ in a detail not shown here. Equal entries are not always repeated.

Key:
[1] = test system: tomato (Lycopersicon spp. cv. Marglobe); assay: Induction of growth enhancement (GE/PGE), tomato seed soak; format: in vivo; settings: for PGE ht>buffer: oligopeptides, Table 5, tomato height vs buffer
Description: Sixty tomato (Lycopersicon spp. cv. […] The next morning, the sixty seeds were sewn in three pots and 12-15 days later and again 18-20 days later the heights of the 10 tallest tomato plants per pot were measured and compared with the heights of the control plants treated only with phosphate buffer. Analyses were done on the heights to determine if there was a significant difference in the height of the plants treated with the truncated proteins compared with the buffer control, and thereby determine whether the proteins induced growth enhancement.

TMV [2] = assay: Induction of systemic acquired resistance (SAR), TMV lesions on tobacco; format: in vivo, Nicotiana tabacum; settings: oligopeptides, Table 5; reduction in TMV lesions vs buffer control
[3] = test system: tobacco and other tested plants; assay: 13 amino acid peptide: HR in tobacco and other tested plants; format: in vivo
[4] = test system: tomato seeds (variety, Marglobe); assay: 13 amino acid peptide: tomato seedling growth after seed soak; format: in vivo
Description: The synthesized peptide was resuspended in 10 ml of 5 mM potassium phosphate buffer and, then, diluted to 1 and 100 ng/ml with the same buffer. About 100 tomato seeds (variety, Marglobe) were submerged in 20 ml of peptide solution overnight. The soaked seeds were planted in an 8 inch pot with artificial soil. Seeds soaked in the buffer without the peptide were used as a control. After seedlings emerged and the first two true leaves fully expanded, the height of the tomato seedlings was recorded.

parsley cells = settings: H+/Ca2+ influxes, K+/Cl− effluxes, active oxygen production, SAR gene induction, phytoalexin accumulation; cited from earlier work
[5] = cited from earlier work
TMV [6] = assay: HrpZ fragments: induced resistance to TMV in tobacco; format: in vivo; settings: % reduction in TMV lesions in unsprayed leaf of tobacco; 152-294 preparation diluted 40-fold, 190-294 diluted 8-fold
Description: (§1) The fragment preparations were then tested for inducing resistance to TMV and for growth enhancement. Due to the difference in concentration of the HrpZ fragments, the 152-294 preparation was diluted 40-fold and the 190-294 preparation was diluted 8-fold. […] In contrast, the 152-294 aa fragment reduced the number of TMV lesions by only 55%. As also shown in Table 8, plants treated with the 152-294 aa fragment grew 4.64% more than buffer treated plants, while plants treated with the 190-294 aa fragment grew 2.62% more than the buffer treated plants.

tobacco leaves = assay: HR test of HrpZ fragment preparations in tobacco leaves; format: in vivo; set-up: key to HR elicitation: +, elicits HR in tobacco leaves; −, no HR in tobacco leaves
Description: Amino acid fragments 152-294 and 190-294 were chosen for further analysis and characterization. It was expected that the fragment 152-294 contained a domain that elicited the HR, while fragment 190-294 contained no domain that elicited the HR. The cultures were spun down, and the bacteria resuspended in 40 ml of 10 mM Tris pH 8.0. Twenty μl of antifoam and 40 μl of 200 mM PMSF were added, and the bacteria was sonicated to break open the cells. The bacterial debris was removed by centrifugation, and the supernatant was placed in a boiling water bath for 10 min. The precipitate was removed by centrifugation and the supernatant, a crude protein preparation, was retained for tests.
Fifteen μl of each supernatant was run on a gel and stained to determine if the protein was present. It was estimated that about five times as much of the 152-294 fragment was present as the 190-294 fragment. Several dilutions of each preparation were infiltrated into tobacco leaves on two plants for HR tests (Table 7).

tomato = assay: HrpZ fragments: growth enhancement (PGE); format: in vivo; settings: % greater height than buffer sprayed plants; 152-294 preparation diluted 40-fold, 190-294 diluted 8-fold
Description: To test whether non-HR eliciting fragments derived from HrpZ, the hypersensitive response elicitor from Pseudomonas syringae pv. syringae, is able to induce disease resistance, several fragment constructs were made and the expressed fragment proteins were tested for HR elicitation and disease resistance induction in tobacco and growth promotion in tomato.
as §1

[7] = test system: tobacco (Nicotiana tabacum v. Xanthi) leaves; assay: Induction of HR in tobacco by hrpN truncated proteins; format: in vivo; settings: large scale purified protein; concentration down to which HR is elicited in tobacco; — = no HR
Description: A 1.5 ml aliquot from the 50 ml cultures grown for small scale purification of the truncated proteins was centrifuged at 14,000 rpm for four minutes and re-suspended in an equal volume of 5 mM potassium phosphate buffer, pH 6.8. The cell suspension was sonicated for ca. 30 seconds then diluted 1:2 and 1:10 with phosphate buffer. Both dilutions plus the neat cell lysate were infiltrated into the fourth to ninth leaves of 10-15 leaf tobacco plants by making a hole in single leaf panes and infiltrating the bacterial lysate into the intercellular leaf space using a syringe without a needle. The HR response was recorded 24-48 hr post infiltration. Tobacco (Nicotiana tabacum v. Xanthi) seedlings were grown in an environmental chamber at 20-25° C. with a photoperiod of 12-h light/12-h dark and ca. 40% RH. Cell lysate was used for the initial HR assays (in order to screen the truncated proteins for HR activity) as the small scale urea purification yielded very little protein which was denatured due to the purification process.
The full length positive control protein elicited HR down to only 5-7 μg/ml. […] This false HR was likely due to an affinity of the imidazole used in the purification process to bind to one or several of the background proteins, thereby not completely dialyzing out.

TMV [8] = assay: Induction of systemic acquired resistance (SAR), TMV lesions on tobacco; format: in vivo, Nicotiana tabacum; settings: tobacco sprayed with 20 μg/ml; reduction in TMV lesions vs buffer control; listed as 19
Description: Three tobacco (Nicotiana tabacum cv. Xanthi) plants with 8-12 leaves (ca. 75 day old plants) were used in the assay. One leaf of the tobacco plants was covered up and the rest of the leaves were sprayed with ca. 50 ml of a 20 μg/ml solution of the truncated proteins diluted with 5 mM potassium phosphate buffer. Five to seven days later two leaves (the unsprayed leaf and the sprayed leaf opposite and just above the unsprayed leaf) were inoculated with 20 μl of a 1.8 μg/ml solution of TMV along with a pinch of diatomaceous earth by rubbing the mixture along the top surface of the leaves. The TMV entered the plants through tiny lesions made by the diatomaceous earth. Ca. 3-4 days post TMV inolucation, the number of TMV lesions was counted on both leaves compared with the number of lesions on the negative control buffer treated leaves. Analyses were done to determine the efficacy of reducing the number of TWV lesions by the protein fragents compared to the buffer control. Percentage of efficacy was calculated as: Reduction in TMV lesions (% efficacy)=100×(1−mean # of lesions on treated leaves/mean # of lesions on buffer control leaves).

In the case of “oligo 137-156: synthesized oligopeptide, amino acids 137-156 of SEQ ID NO: 23 (STSQNDDSTSGTDSTSDSSD; listed as Erwinia amylovora)”, the “PGE ht>buffer” value [1] is reported as 7.4% and the TMV efficacy (TMV [2]) is reported as −87.7%.

In the case of “oligo 137-166: synthesized oligopeptide, amino acids 137-166 of SEQ ID NO: 23 (STSQNDDSTSGTDSTSDSSDPMQQLLKMFS; listed as Erwinia amylovora)”, the “PGE ht>buffer” value [1] is reported as 12.0% and the TMV efficacy (TMV [2]) is reported as 61.2%.

For “oligo 121-150: synthesized oligopeptide, amino acids 121-150 of SEQ ID NO: 23 (TTSTTNSPLDQALGINSTSQNDDSTSGTDS; listed as Erwinia amylovora)”, the “PGE ht>buffer” value [1] was 17.3% and the TMV efficacy (TMV [2]) was 60.0%.

In the case of “oligo 150-179: synthesized oligopeptide, amino acids 150-179 of SEQ ID NO: 23 (STSDSSDPMQQLLKMFSEIMQSLFGDGQDG; listed as Erwinia amylovora)”, the “PGE ht>buffer” value [1] is reported as 10.1% and the TMV efficacy (TMV [2]) is reported as 72.9%.

For “NH2-Val-Trp-Asn-Gln-Pro-Val-Arg-Gly-Phe-Lys-Val-Tyr-Glu-COOH (H-VWNQPVRGFKVYE-OH; listed as Phytophthora megasperma) [13 amino acid peptide, oligopeptide derived from the 42 kDa glycoprotein elicitor of Phytophthora megasperma]”, the HR elicitation [3] was “not able to elicit the HR”, the “% Change” value ([4]; height increase vs buffer, 100 ng/ml peptide) was 12.6% and the “Height of seedlings (cm)” value ([4]; individual tomato seedlings, seeds soaked overnight in 100 ng/ml peptide, listed as Peptide Solution) was 6.5 cm (5×) and 6.0 cm (5×). The “Average (cm)” value ([4]; mean seedling height, 100 ng/ml peptide) was 6.25 cm and the “defense response in parsley cells” value (parsley cells) was “sufficient to elicit a complex defense response”.

B1: hypersensitive response elicitor polypeptide or protein derived from Erwinia amylovora: elicitor from Erwinia amylovora, amino acid sequence SEQ ID NO: 23 (protein, listed as Erwinia amylovora)
chain: MSLNTSGLGASTMQISIGGAGGNNGLLGTSRQNAGLGGNSALGLGGGNQNDTVNQLAGLLTGMMMMMSMMGGGGLMGGGLGGGLGNGLGGSGGLGEGLSNALNDMLGGSLNTLGSKGGNNTTSTTNSPLDQALGINSTSQNDDSTSGTDSTSDSSDPMQQLLKMFSEIMQSLFGDGQDGTQGSSSGGKQPTEGEQNAYKKGVTDALSGLMGNGLSQLLGNGGLGGGQGGNAGTGLDGSSLGGKGLQNLSGPVDYQQLGNAVGTGIGMKAGIQALNDIGTHRHSSTRSFVNKGDRAMAKEIGQFMDQYPEVFGKPQYQKGPGQEVKTDDKSWAKALSKPDDDGMTPASMEQFNKAKGMIKRPMAGDTGNGNLQARGAGGSSLGIDAMMAGDAINNMALGKLGAA
For B1, the “heat stable at 100° C. for” value [5] is given as “at least 10 minutes”.

B2: HrpZ Fragment 190-294: amino acids 190-294 of HrpZ (SEQ ID NO: 31), calmodulin-binding peptide fusion, crude preparation (protein, listed as Pseudomonas syringae)
chain: DIIGQQLGNQQSDAGSLAGTGGGLGTPSSFSNNSSVMGDPLIDANTGPGDSGNTRGEAGQLIGELIDRGLQSVLAGGGLGTPVNTPQTGTSANGGQSAQDLDQLL
modifications: calmodulin-binding peptide fusion
In the case of B2, the “TMV (% efficacy)” value (TMV [6]) is reported as 85% and 85.25%, the “HR elicitation (in words)” value (tobacco leaves; dilutions infiltrated into tobacco leaves) is reported as “did not” and the “HR test, dilution 1:2” value (tobacco leaves; preparation diluted 1:2 with MilliQ water, result for each of two plants) is reported as “−,−”. The “HR test, dilution 1:5” value (tobacco leaves; preparation diluted 1:5 with MilliQ water, result for each of two plants) was “−,−”, the “HR test, dilution 1:25” value (tobacco leaves; preparation diluted 1:25 with MilliQ water, result for each of two plants) was “−,−” and the “HR test, dilution 1:125” value (tobacco leaves; preparation diluted 1:125 with MilliQ water, result for each of two plants) was “−,−”. The HR elicitation (tobacco leaves; tobacco leaves) was “−” and the “PGE(% > buffer ht)” value (tomato) was 2.62%.

B3: Fragment 19: amino acids 137-204 of SEQ ID NO: 23, internal fragment (protein, listed as Erwinia amylovora)
chain: STSQNDDSTSGTDSTSDSSDPMQQLLKMFSEIMQSLFGDGQDGTQGSSSGGKQPTEGEQNAYKKGVTD
For B3, the “PGE ht>buffer @10 μg/ml” value ([1]; tomato seeds soaked overnight at 10 μg/ml, height vs buffer control, >10% needed to pass) was 11%, the “PGE ht>buffer @20 μg/ml” value ([1]; tomato seeds soaked overnight at 20 μg/ml, height vs buffer control, >10% needed to pass) was 13% and the HR titer [7] was 3.5 µg/mL. For the same molecule, the “Efficacy of TMV control” value (TMV [8]) was 89% and 77%.
